From paper PMC2865264 (The Journal of Biological Chemistry, 2010)

Legend:
[1] = target: GST:PK53 (Trypanosoma brucei, UniProt Q582J2, E440D); details: ATP at its Km; peptide KKLNRTLSFAEPG; Tris-HCl pH 7.0, 1 mM MnCl2, 1% DMSO
[2] = target: T1, GST:PK50 (Trypanosoma brucei, UniProt Q26801); experiment: radiometric filter plate kinase assay, [gamma-33P]ATP, 10-point dilution; format: biochemical
T1 sequence (Q26801 1-437): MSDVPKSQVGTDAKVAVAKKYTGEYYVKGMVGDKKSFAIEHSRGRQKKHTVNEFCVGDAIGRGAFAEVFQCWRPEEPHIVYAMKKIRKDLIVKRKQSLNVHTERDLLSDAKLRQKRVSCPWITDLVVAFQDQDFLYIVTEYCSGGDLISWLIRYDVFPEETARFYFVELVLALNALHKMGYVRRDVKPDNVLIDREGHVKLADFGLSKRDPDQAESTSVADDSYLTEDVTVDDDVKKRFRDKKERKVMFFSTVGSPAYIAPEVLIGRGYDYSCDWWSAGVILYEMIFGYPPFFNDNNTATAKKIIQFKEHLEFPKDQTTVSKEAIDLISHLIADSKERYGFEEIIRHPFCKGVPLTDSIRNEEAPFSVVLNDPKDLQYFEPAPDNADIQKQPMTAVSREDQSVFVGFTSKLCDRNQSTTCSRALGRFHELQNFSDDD

[3] = substrate: Nc1ncnc2c1ncn2[C@@H]1O[C@H](COP(=O)(O)OP(=O)(O)OP(=O)(O)O)[C@@H](O)[C@H]1O; experiment: purified protein; details: co-substrate peptide … varied, 15 nM enzyme, Tris-HCl pH 7.9, 3 mM MnCl2

Row | Molecule | IC50 [1] [nM] | IC50 [2] [nM] | Km [3] [µM]
1 | CN[C@@H]1C[C@H]2O[C@@](C)([C@@H]1OC)n1c3ccccc3c3c4c(c5c6ccccc6n2c5c31)C(=O)NC4 [staurosporine] | 4.6 ± 0.3 | 216 ± 47 | 
2 | GST:PK50 (Trypanosoma brucei) (protein) MSDVPKSQVGTDAKVAVAKKYTGEYYVKGMVGDKKSFAIEHSRGRQKKHTVNEFCVGDAIGRGAFAEVFQCWRPEEPHIVYAMKKIRKDLIVKRKQSLNVHTERDLLSDAKLRQKRVSCPWITDLVVAFQDQDFLYIVTEYCSGGDLISWLIRYDVFPEETARFYFVELVLALNALHKMGYVRRDVKPDNVLIDREGHVKLADFGLSKRDPDQAESTSVADDSYLTEDVTVDDDVKKRFRDKKERKVMFFSTVGSPAYIAPEVLIGRGYDYSCDWWSAGVILYEMIFGYPPFFNDNNTATAKKIIQFKEHLEFPKDQTTVSKEAIDLISHLIADSKERYGFEEIIRHPFCKGVPLTDSIRNEEAPFSVVLNDPKDLQYFEPAPDNADIQKQPMTAVSREDQSVFVGFTSKLCDRNQSTTCSRALGRFHELQNFSDDD |  |  | 25.7 ± 4.8
